{"source": "patent US8173686B2", "about": "“Use of picoplatin to treat colorectal cancer” (priority 2006, dated 2012)", "origin": "cited, not measured here", "conditions": "in vivo", "data": [{"smiles": "N.N.O=C([O-])C1(C(=O)[O-])CCC1.[Pt+2]", "note": "[carboplatin]", "values": [{"measurement": "main / dose-limiting toxicity", "result": "myelosuppression"}]}]}
